Test results as given in patent publication US8962854B2, “Luminescent substrate for luciferase” (The University of Electro-Communications, priority 2011, dated 2015).

How the values were obtained:
firefly luciferase = firefly luciferase (Photinus pyralis, UniProt P08659); assay: Bioluminescent emission spectrum measurement; type: biochemical; details: ATP-Mg
Experimental: In a 200 μL polystyrene tube, potassium phosphate buffer solution (0.5 M, pH 8.0, 20 μl), substrate solution (2.5 mM, 20 μl), enzyme solution (20 μl), to and ATP-Mg solution (10 mM, 40 μl) were mixed, and emission spectrum measurement was performed. An enzyme solution with a concentration of 17 μM was used. Enzymes with a concentration of 1.7 μM for the firefly luciferin and of 170 μM for the phenol-type luciferin, however, were used. The exposure time for emission spectrum measurement was 60 seconds. For the firefly luciferin, however, the time was five seconds.

[1] = University of Tokyo luciferin derivative; cited from earlier work
[2] = reaction with firefly luciferase, substrate solution 2.5 mM, enzyme solution 17 μM, pH 8.0, exposure 60 seconds

Sequence of firefly luciferase (P08659 whole entry): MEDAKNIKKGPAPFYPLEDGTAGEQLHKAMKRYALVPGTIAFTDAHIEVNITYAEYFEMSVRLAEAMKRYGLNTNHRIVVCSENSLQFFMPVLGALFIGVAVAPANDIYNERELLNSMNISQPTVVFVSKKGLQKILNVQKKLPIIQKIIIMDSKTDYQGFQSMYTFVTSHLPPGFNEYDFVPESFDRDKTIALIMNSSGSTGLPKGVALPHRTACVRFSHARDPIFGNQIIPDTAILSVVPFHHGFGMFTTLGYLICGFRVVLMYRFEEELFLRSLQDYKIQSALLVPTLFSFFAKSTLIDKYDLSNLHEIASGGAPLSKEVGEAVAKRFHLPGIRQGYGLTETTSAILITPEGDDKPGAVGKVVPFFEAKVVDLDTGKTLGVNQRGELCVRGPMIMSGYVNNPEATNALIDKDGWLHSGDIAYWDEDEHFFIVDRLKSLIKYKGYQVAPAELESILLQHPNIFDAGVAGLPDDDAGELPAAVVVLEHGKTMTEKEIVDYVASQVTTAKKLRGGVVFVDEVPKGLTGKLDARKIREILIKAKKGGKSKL

SMILES | emission wavelength (firefly luciferase; [2]) | further results
C=CCc1c(O)ccc2nc(C3=N[C@@H](C(=O)O)CS3)sc12 [7-allyl-firefly luciferin 35, 7-allyl-firefly luciferin] | 605 nm | –
O=C(O)[C@H]1CSC(/C=C/c2ccc3cc(O)ccc3c2)=N1 [compound 39] | 660 nm | –
C=CCc1c(O)ccc2cc(/C=C/C3=NC(C(=O)O)CS3)ccc12 (stereo not drawn) [compound 21] | approximately 690 nm | emission wavelength (firefly luciferase; reaction with firefly luciferase, substrate solution 2.5 mM, enzyme solution 17 μM, pH 8.0, exposure 60 seconds, listed as FIG. 2): 690 nm
Nc1ccc2nc(C3=N[C@@H](C(=O)O)CS3)sc2c1 [Aminoluciferin] | – | emission wavelength [1]: approximately 610 nm
O=C(O)C1CSC(c2nc3ccc(O)cc3s2)=N1 (stereo not drawn) [Firefly luciferin] | – | emission wavelength (firefly luciferase; firefly luciferin: enzyme 1.7 μM, exposure five seconds, pH 8.0): 565 nm
